Earlier results in article PMC2615486 (Chemistry & biology, 2008).

Assays:
[1] = ref Hyre, D.E., Le Trong, I., et al. 2006
avidin = details: ref Green, N.M. 1970

| Compound | association rate for biotin [1] | dissociation constant for avidin, weaker than that of biotin (avidin) |
| --- | --- | --- |
| streptavidin: wild-type streptavidin as described in the literature | ~ 1 × 10^8 M^−1s^−1 | – |
| C[C@@H]1NC(=O)N[C@@H]1CCCCCC(=O)O [desthiobiotin] | – | 10^2–10^4 fold |
